Measured values taken from patent US12233108B2, “Compositions and methods for promoting islet viability and enhancing insulin secretion” (University of Virginia Patent Foundation, priority 2019, dated 2025).
Entries after “also recorded” stand apart in the source; their conditions may differ. Like-named read-outs stand apart in the source and are kept apart here. Where no end group is shown, it is not given here.

Tests used:
human islets [1] = assay: Viability of cultured human islets; assay type: cell-based
Procedure: (§1) Human islet cells were similarly incubated with a N-94 peptide or C-95 peptide for varying periods of time following which GSIS assay and viability measurements were conducted. Insulin was measured using Insulin ELISA kit (Mercodia, Uppsala, Sweden).
(§2) 50 human islets were incubated with N-94 peptide or C-95 peptide for 1, 3, 4, 6 and 9 days following which GSIS assay and viability measurement were conducted. Insulin was measured using Insulin ELISA kit (Mercodia).
Human islets were treated with various peptides of the presently disclosed subject matter and viability was assessed at twenty days post-treatment.

human sensory neurons = assay: Viability of iPSC-derived sensory neurons stressed with inflammatory cytokines (Alamar Blue); assay type: cell-based; settings: day 21 neurons, IFN-γ (1000 U/mL)+TNF-α (100 ng/mL), 1 mM peptide, 72 hours
Procedure: Whether the peptides of the presently disclosed subject matter could enhance viability of human sensory neurons stressed with inflammatory cytokines was tested. Sensory neurons were derived from Induced Pluripotent Stem Cells (iPSC). iPSCs were seeded into 12 well Matrigel-coated plates (1.25×10^5 cells/well). Neural differentiation was initiated when cells were confluent using KSR medium. 100 nM of LDN-193189 and […] of SB431542 were added to the culture from day 0 to 6, to inhibit SMAD signaling. On day 4, 25% of N2 medium was added to the culture, with 100% of N2 medium at day 10. Sensory neurons induction was initiated at day 2 (day 2-10), with the addition of […] CHIR 99021, […] SU5402, and […] DAPT. From day 10 to day 21 neuron maturation was promoted with 25 ng/mL of β-NGF, BDNF, and GDNF. Cells were fed every day.
Sensory neurons (day 21) were incubated with IFN-g (1000 U/mL)+TNF-α (100 ng/mL) with or without 1 mM of the N-94/C-6 peptide or the negative control C-95 peptide for 72 hours in a 96-well plate. Alamar Blue reagent (10%) was added in each well. Fluorescence was measured after 6 hours (excitation at 545 nm/emission at 590 nm).

human islets [2] = assay: Glucose-stimulated insulin secretion (GSIS) assay, human islets; assay type: cell-based; settings: for GSIS response / insulin secretion compared to C-95 peptide: human islets, 1 μM peptide overnight, 28 mM glucose
Procedure: as §1
(§3) Human islet cells were incubated overnight with 1 μM N-94 peptide (SEQ ID NO: 1), N-94/C6 peptide (SEQ ID NO: 62), N104 peptide, Tearpep3 peptide (SEQ ID NO: 21), Tearpep3/C6 peptide (SEQ ID NO: 33), C-95 peptide, or no treatment followed by GSIS assays (se FIG. 2A for the structures of, and Table 2 for the sequences of, these exemplary peptides). C57BL/6 islet cells were pretreated with 4 μM N-94 N-94 peptide or C-95 peptide or saline for 24 hours followed by minimal islet mass transplantation into syngeneic diabetic recipients. Tail vein blood glucoses were measured daily.
as §2
Human islets were incubated overnight with 1 μM N-94 peptide, N-94/C6 peptide, N104 peptide, Tearpep3 peptide, Tearpep3/C6 peptide, C-95 peptide, or no treatment and GSIS assay performed.

[3] = system: C57BL/6 mice made diabetic by single streptozotocin injection; assay: Minimal islet mass transplantation of peptide-pretreated islets into streptozotocin-diabetic mice, blood glucose; assay type: in vivo, mouse
Procedure: as §3
75 C57Bl/6 islets were transplanted into C57BL/6 recipients made diabetic by single STZ injection (220 mg/Kg). Islets were pretreated with 4 μM N-94 peptide or C-95 peptide or saline for 24 hours prior to transplantation into diabetic mice (n=2 mice/group). Tail vein blood glucoses were measured daily. Incubation of islets with N-94 peptide permanently returned transplanted mice to normoglycemia with glucoses below 200 mg/dL within 9 days posttransplant. With C-95 peptide treatment, the glucose at Day 12 posttransplant was <250 mg/dL. Mice transplanted with untreated islets remained diabetic.
FIG. 4 is a graph of blood glucose levels of pancreatic islets treated with the indicated peptides and transplanted into diabetic mice observed for 60 days. Shown is a graph of blood glucose levels after minimal transplantation of 75 N-94 peptide-treated, C-95 peptide-treated, or saline-treated C57Bl/6 islets under the kidney capsule of C57BL/6 mice made diabetic before transplantation by single streptozotocin injection (220 mg/kg; two mice per group). Pretreatment was for 24 hours. Tail vein blood was collected daily for glucose analyses. Each line represents the progressive blood glucose level of a single diabetic mouse. Six mice each received N-94 peptide treated islets (black), six others received C-95 peptide treated islets (blue), and four received saline treated islets (orange). N-94 peptide permanently returned transplanted mice to normoglycemia with glucose below 200 mg/dL within 9 days post-transplantation with treatment efficacy continuing after 40 days post-transplantation. With C-95 peptide treatment, the glucose at Day 12 post-transplant was <250 mg/dL. Average blood glucoses measured between Days 22 to 43 were 142.9±17.6 mg/dL for the N-94 group compared to 275±34.8 mg/dL for the C-95 peptide group.

C57BL/6 islets [4] = assay: Glucose-stimulated insulin secretion (GSIS) assay, mouse islets; assay type: cell-based; settings: for insulin secreted in GSIS assay: 50 islets/well, high glucose (28 mM); for GSIS: mouse islet cells
Procedure: C57BL/6 islets were also incubated overnight with 4 μM N-94 peptide (SEQ ID NO: 1) or C-95 peptide or no additive following which Glucose-stimulated Insulin secretion (GSIS) assays were performed.
C57BL/6 islets were incubated overnight with 4 μM N-94 peptide or C-95 peptide or no additive. 50 islets/well were used to perform Glucose stimulated Insulin secretion (GSIS) assay. Islets that were untreated or treated with C-95 peptide or with N-94 peptide and stimulated with high glucose (28 mM) secreted 39.86±7.81, 54.9±18.14, and 91±22.16 ng/ml Insulin. N-94 peptide increased insulin secretion by 2-fold compared to untreated control. Viability of human islets incubated with N-94 peptide at Day 1, 3, 4, 6, and 9 was 95±4, 95±3, 94±4, 84±9, and 80±15% while with C-95 it was 94±4, 91±7, 88±8, 66±16, and 65±18%. With saline it was 94±4, 94±3, 88±8, 58±19, and ˜53. While GSIS results were similar to the mouse results, maximum insulin secretion activity with N-94 peptide was only observed on Day 1 and 3.

C57BL/6 islets [5] = assay type: cell-based, mouse; settings: for viability of islets: C57BL/6, mouse, 4 μM; for mouse islet viability (in words): isolated mouse pancreatic islets, 4 μM peptide, in vitro
Procedure: C57BL/6 islets (see FIG. 3) were cultured with 4 μM N-94 (N-94) peptide or control peptide C-95 for different time periods ranging from 1-15 days in DMEM at 37° C. Viability of islets was scored by propidium iodide-fluorescein diacetate staining. 35 C57BL/6 islets/per well were cultured with 4 μM of N-94 peptide analog N-94 or control C-95 peptide for 1, 2, 5, 7,10 or 15 days in DMEM at 37° C. Viability of islets was scored after staining with PI/FDA. Islets cultured with N-94 peptide retained 95±3, 89±15, 80±17.5 and 61±21% viability while islets cultured with C-95 peptide retained 95±3, 87±13, 40±28 and 20±19% viability at Day 1, 5, 10 and 15.

[6] = 75 islets pretreated 24 hours with 4 μM peptide, STZ-diabetic C57BL/6 mice
[7] = C57BL/6 islets, 4 μM peptide overnight

Sequence | GSIS response / insulin secretion compared to C-95 peptide (human islets [2]) | average blood glucose between Days 22 to 43 [3, 6] | insulin secreted in GSIS assay (C57BL/6 islets [4]; [7]) | GSIS (C57BL/6 islets [4]; 4 μM peptide overnight) | viability of human islets (human islets [1]; 1 days) | viability of human islets (human islets [1]; 3 days) | viability of human islets (human islets [1]; 4 days) | viability of human islets (human islets [1]; 6 days) | viability of human islets (human islets [1]; 9 days) | viability of islets (C57BL/6 islets [5]; 1 days) | viability of islets (C57BL/6 islets [5]; 5 days) | viability of islets (C57BL/6 islets [5]; 10 days) | viability of islets (C57BL/6 islets [5]; 15 days) | mouse islet viability (in words) (C57BL/6 islets [5]) | other results
GKNRRKNWHAQLFVL [Tearpep3/N-104] |  |  |  |  |  |  |  |  |  |  |  |  |  |  | viability of human islets twenty days after isolation (in words) (human islets [1]; human islets, 4 μM peptide, versus 4 μM Tearpep3/C-6 and lacritin N-94): superior viability
KQFIENGSEFAQKLLKKFS [N-94/C-6, fragment of lacritin] |  |  |  |  |  |  |  |  |  |  |  |  |  |  | viability of stressed human sensory neurons (in words) (human sensory neurons): restored viability
AQKLLKKFSLLKPWA [N-104] | ~3.5 fold |  |  |  |  |  |  |  |  |  |  |  |  |  | rank of activity in glucose-dependent insulin secretion assay (human islets [2]; 100 human islets, 1 μM peptide, 24 hours): Most active
KQFIENGSEFAQKLLKKFSLLKPWA [N-94] | near doubling; also recorded: nearly doubled | 142.9 ± 17.6 mg/dL | 91 ± 22.16 ng/mL | 91 ± 22 ng/mL | 95±4% | 95±3% | 94±4% | 84% | 80±15% | 95±3% | 89±15% | 80±17.5% | 61% | promotes mouse islet viability | time to normoglycemia (glucose below 200 mg/dL) posttransplant [3, 6]: ≤ 9 days; treatment efficacy continuing posttransplant [3, 6]: > 40 days; blood glucose on return to normoglycemia ([3]; 75 islets pretreated 24 hours with 4 μM peptide, transplanted into STZ-diabetic C57BL/6 mice, within 9 days posttransplant): below 200 mg/dL; effect of peptide-pretreated islet transplant on diabetes (in words) ([3]; pretreated islets transplanted into streptozotocin diabetic mice): rapidly restores normoglycemia; also recorded: reverse disease; increase of GSIS / insulin secretion compared to untreated (C57BL/6 islets [4]; C57BL/6 islets, 4 μM peptide overnight, high glucose): ~2 fold; glucose-dependent insulin secretion (in words) (C57BL/6 islets [4]; isolated mouse pancreatic islets, 4 μM peptide, treatment 24 hours after islet isolation): promotes
EDASSDSTGADPAQEAGTSKPNEE [C-95, reference compound] |  | 275 ± 34.8 mg/dL | 54.9 ± 18.14 ng/mL | 54.9 ± 18.1 ng/mL | 94±4% | 91±7% | 88±8% | 66% | 65±18% | 95±3% | 87±13% | 40±28% | 20% | not | blood glucose at Day 12 posttransplant [3, 6]: < 250 mg/dL
